Reference: ChEMBL document CHEMBL1201862, “PubChem BioAssay data set” (2004)
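Cultured in 96-well plates, cells were exposed to test compound for 48 hours across five concentrations. GI50 is the concentration that inhibits growth by half.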 Activity calls are given as the source filed them. Rule as the data show it: active = GI50 up to about 1.1 µM and inactive = higher.

Assays:
Assay in all cases: NCI tumour cell line growth inhibition, 48 h
OVCAR-8 = test system: OVCAR-8
U-251 = test system: U-251
NCI-H23 = test system: NCI-H23
SF-295 = test system: SF-295
SNB-75 = test system: SNB-75
786-0 = test system: 786-0
UACC-257 = test system: UACC-257
Malme-3M = test system: Malme-3M
HCT-15 = test system: HCT-15
RPMI-8226 = test system: RPMI-8226
OVCAR-3 = test system: OVCAR-3
SK-OV-3 = test system: SK-OV-3
COLO 205 = test system: COLO 205
DU-145 = test system: DU-145
OVCAR-4 = test system: OVCAR-4
OVCAR-5 = test system: OVCAR-5
MCF7 = test system: MCF7
ACHN = test system: ACHN
SR = test system: SR
HL-60 = test system: HL-60

SMILES | GI50 (OVCAR-8) | GI50 (U-251) | GI50 (NCI-H23) | GI50 (SF-295) | GI50 (SNB-75) | GI50 (786-0) | GI50 (UACC-257) | GI50 (Malme-3M) | GI50 (HCT-15) | GI50 (RPMI-8226) | GI50 (OVCAR-3) | GI50 (SK-OV-3) | GI50 (COLO 205) | GI50 (DU-145) | GI50 (OVCAR-4) | GI50 (OVCAR-5) | GI50 (MCF7) | GI50 (ACHN) | GI50 (SR) | GI50 (HL-60)
CO[C@@]12C[C@@H](CNC(=O)c3cc(Br)c[nH]3)O[C@@H]1NC(=O)N2 | > 100 µM (inactive) | > 100 µM (inactive) | > 100 µM (inactive) | > 100 µM (inactive) | > 100 µM (inactive) | > 100 µM (inactive) | > 100 µM (inactive) | > 100 µM (inactive) | > 100 µM | > 100 µM (inactive) | > 100 µM (inactive) | > 100 µM (inactive) | > 100 µM (inactive) | > 100 µM (inactive) | > 100 µM (inactive) | > 100 µM (inactive) | > 100 µM (inactive) | > 100 µM (inactive) |  | 
O=C(O)C1C(=O)Oc2c(cccc2[N+](=O)[O-])C1O (configuration not stated) | > 100 µM (inactive) | > 100 µM (inactive) | > 100 µM (inactive) | > 100 µM (inactive) | > 100 µM (inactive) | > 100 µM (inactive) | > 100 µM (inactive) | > 100 µM (inactive) | > 100 µM | > 100 µM (inactive) | > 100 µM (inactive) |  | > 100 µM (inactive) | > 100 µM (inactive) | > 100 µM (inactive) | > 100 µM (inactive) |  | > 100 µM (inactive) | > 100 µM (inactive) | > 100 µM (inactive)
O=[N+]([O-])/C(C(Cl)=C(Cl)Cl)=C1\Nc2ccc([N+](=O)[O-])cc2N1 |  | 60 µM (inactive) | > 100 µM (inactive) | > 100 µM (inactive) | > 100 µM (inactive) | > 100 µM (inactive) | > 100 µM (inactive) | 63.5 µM (inactive) | > 100 µM | 55 µM (inactive) | > 100 µM (inactive) | > 100 µM (inactive) | > 100 µM (inactive) | > 100 µM (inactive) | > 100 µM (inactive) | > 100 µM (inactive) | > 100 µM (inactive) | > 100 µM (inactive) |  | 
CCCCC1c2c([nH]c3ccccc23)C2C(=O)N(c3ccc(OC)cc3)C(=O)C2C1CCC (configuration not stated) | 2.65 µM (inactive) | 8.71 µM (inactive) | 3.89 µM (inactive) | > 10 µM (inactive) | 2.55 µM (inactive) | 4.39 µM (inactive) | 3.61 µM (inactive) | 4.44 µM (inactive) | 3.6 µM | 4.61 µM (inactive) | 3.36 µM (inactive) | > 10 µM (inactive) | 2.59 µM (inactive) | 5.12 µM (inactive) | 4.82 µM (inactive) | > 10 µM (inactive) |  | 5.7 µM (inactive) | 4.75 µM (inactive) | 2.96 µM (inactive)
O=[N+]([O-])c1ccc2c(c1)C1=C(CO2)Cc2ccccc2O1 | 33.5 µM (inactive) | 17.6 µM (inactive) | 22 µM (inactive) | 37.8 µM (inactive) | > 100 µM (inactive) | 17.4 µM (inactive) | 17.8 µM (inactive) | 26.4 µM (inactive) | 14.3 µM | 36.6 µM (inactive) | 19.8 µM (inactive) | 74.5 µM (inactive) | 16.8 µM (inactive) | 33.9 µM (inactive) | 36.9 µM (inactive) | 24.5 µM (inactive) |  | 15.5 µM (inactive) | 18.9 µM (inactive) | 
C[P+](c1ccccc1)(c1ccc(Cl)cc1)c1ccc(Cl)cc1 | 14.7 µM (inactive) | 16.3 µM (inactive) | 12.3 µM (inactive) |  | 14.4 µM (inactive) | 31.3 µM (inactive) | 8.11 µM (inactive) | 4.19 µM (inactive) | 88.9 µM | 0.432 µM (active) | 0.183 µM (active) | 37.2 µM (inactive) | 10.4 µM (inactive) | 18.4 µM (inactive) | 13.2 µM (inactive) | 18.2 µM (inactive) | 26.9 µM (inactive) | 29.1 µM (inactive) |  | 
